Measured values published in patent US8436186B2, “Thiazolyl piperidine derivatives” (Merck Patent Gesellschaft mit beschrankter Haftung, priority 2008, dated 2013).

Target: SphK1 (Homo sapiens, UniProt Q9NYA1)
Test: SphK1 384-well flashplate kinase assay
Assay type: biochemical
Conditions: enzyme assay
Procedure: The kinase assay is carried out as a 384-well flashplate assay.
5 nM modified SphK1, 800 nM omega-biotinyl-D-erythro-sphingosine and 1 μM ATP (with 0.3 μCi of ^33P-ATP/well) are incubated in a total volume of 50 μl (25 mM HEPES, 5 mM MgCl2, 1 mM dithiothreitol, 0.01% of Brij35, 0.1% of BSA (fatty acid-free), pH 7.4) without or with test substance (5-10 concentrations) at 30° C. for 120 min. The reaction is terminated using 25 μl of 200 mM EDTA solution, filtered off with suction at room temperature after 30 min, and the cavities are washed 3 times with 100 μl of 0.9% NaCl solution. The non-specific proportion of the kinase reaction (blank) is determined using 0.5 mM NaCl. Radioactivity is measured in topcount. IC50 values are calculated using RS1.

Chain of SphK1 (Q9NYA1 whole entry): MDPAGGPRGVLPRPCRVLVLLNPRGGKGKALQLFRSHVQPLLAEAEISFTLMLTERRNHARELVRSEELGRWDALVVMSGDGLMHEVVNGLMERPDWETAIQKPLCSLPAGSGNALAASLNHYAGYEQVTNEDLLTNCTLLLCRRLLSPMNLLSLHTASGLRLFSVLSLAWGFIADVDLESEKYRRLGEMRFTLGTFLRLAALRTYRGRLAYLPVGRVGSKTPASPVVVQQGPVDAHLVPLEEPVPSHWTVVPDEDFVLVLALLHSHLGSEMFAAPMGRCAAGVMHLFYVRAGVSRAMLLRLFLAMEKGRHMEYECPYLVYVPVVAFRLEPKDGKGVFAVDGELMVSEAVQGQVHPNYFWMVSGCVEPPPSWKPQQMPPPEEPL

Compound	IC50
CC1(C)CCC(C)(C)c2cc(-c3csc(C4CCN(C(=O)[C@H](N)CO)CC4)n3)ccc21 [Compound A70]	1000 to 10000 nM
CN1CCCC1CCN1CCC(c2nc(-c3ccc4c(c3)C(C)(C)CCC4(C)C)cs2)CC1 (stereo not shown) [Compound A5]	1000 to 10000 nM
CN(C)CC(=O)N1CCC(c2nc(-c3ccc4c(c3)C(C)(C)CCC4(C)C)cs2)CC1 [Compound A55]	> 10000 nM
CN(C)n1cccc1CN1CCC(c2nc(-c3ccc4c(c3)C(C)(C)CCC4(C)C)cs2)CC1 [Compound B14]	1000 to 10000 nM
OCCN1CCC(c2nc(-c3ccc4c(c3)CCCC4)cs2)CC1 [Compound A11]	1000 to 10000 nM
CCN(CC)CCCN1CCC(c2nc(-c3ccc4c(c3)C(C)(C)CCC4(C)C)cs2)CC1 [Compound A36]	1000 to 10000 nM
CC1(C)CCC(C)(C)c2cc(-c3csc(C4CCN(C[C@@H](O)CO)CC4)n3)ccc21 [Compound A12]	1000 to 10000 nM
CC1(C)CCC(C)(C)c2cc(-c3csc(C4CCN(CCN5CCOCC5)CC4)n3)ccc21 [Compound A25]	1000 to 10000 nM
CCN(CC)CCNC(=O)N1CCC(c2nc(-c3ccc4c(c3)C(C)(C)CCC4(C)C)cs2)CC1 [Compound A45]	> 10000 nM
OC[C@H](O)CN1CCC(c2nc(-c3ccc4c(c3)CCCC4)cs2)CC1 [Compound A15]	1000 to 10000 nM
CN(C)CCOCCOC(=O)N1CCC(c2nc(-c3ccc4c(c3)C(C)(C)CCC4(C)C)cs2)CC1 [Compound A47]	1000 to 10000 nM
CCn1nccc1CN1CCC(c2nc(-c3ccc4c(c3)C(C)(C)CCC4(C)C)cs2)CC1 [Compound B11]	1000 to 10000 nM
CC1(C)CCC(C)(C)c2cc(-c3csc(C4CCN(CCn5c(=O)[nH]c6ccccc6c5=O)CC4)n3)ccc21 [Compound A24]	1000 to 10000 nM
CN(C)CCN1CCC(c2nc(-c3ccc4c(c3)CCCC4)cs2)CC1 [Compound A6]	> 10000 nM
CC1(C)CCC(C)(C)c2cc(-c3csc(C4CCN(C(=O)c5ccncc5)CC4)n3)ccc21 [Compound A52]	1000 to 10000 nM
CC1(C)CCC(C)(C)c2cc(-c3csc(C4CCN(CC(=O)N5CCOCC5)CC4)n3)ccc21 [Compound A31]	1000 to 10000 nM
CC1(C)CCC(C)(C)c2cc(-c3csc(C4CCN(Cc5ccncc5)CC4)n3)ccc21 [Compound A74]	1000 to 10000 nM
CN1CCCCC1CCN1CCC(c2nc(-c3ccc4c(c3)C(C)(C)CCC4(C)C)cs2)CC1 (stereo not shown) [Compound A23]	1000 to 10000 nM
Cn1cnc(CN2CCC(c3nc(-c4ccc5c(c4)C(C)(C)CCC5(C)C)cs3)CC2)c1 [Compound A71]	1000 to 10000 nM

The remaining lines, values ahead:

IC50	Compound
1000 to 10000 nM	CN(C)CCCNC(=O)N1CCC(c2nc(-c3ccc4c(c3)C(C)(C)CCC4(C)C)cs2)CC1 [Compound A42]
10 to 1000 nM	COCC(O)CN1CCC(c2nc(-c3ccc4c(c3)C(C)(C)CCC4(C)C)cs2)CC1 (stereo not shown) [Compound A17]
10 to 1000 nM	CC(CO)N1CCC(c2nc(-c3ccc4c(c3)C(C)(C)CCC4(C)C)cs2)CC1 (stereo not shown) [Compound A38]
10 to 1000 nM	CC1(C)CC(C)(C)c2cc(-c3csc(C4CCNCC4)n3)ccc21 [Compound C7]
10 to 1000 nM	CC1(C)CC(C)(C)c2cc(-c3csc(C4CCN(CCCO)CC4)n3)ccc21 [Compound B4]
10 to 1000 nM	CC1(C)CCC(C)(C)c2cc(-c3csc(C4CCN(C(=O)[C@H](N)CCCCO)CC4)n3)ccc21 [Compound A66]
1000 to 10000 nM	CCN(CC)CCN1CCC(c2nc(-c3ccc4c(c3)C(C)(C)CCC4(C)C)cs2)CC1 [Compound A26]
1000 to 10000 nM	CC1(C)CCC(C)(C)c2cc(-c3csc(C4CCN(CCN5CCCCC5)CC4)n3)ccc21 [Compound A19]
1000 to 10000 nM	CC(CN(C)C)N1CCC(c2nc(-c3ccc4c(c3)C(C)(C)CCC4(C)C)cs2)CC1 (stereo not shown) [Compound A29]
10 to 1000 nM	CC1(C)CCCc2cc(-c3csc(C4CCN(CCCCO)CC4)n3)ccc21 [Compound B3]
10 to 1000 nM	CC(CCO)N1CCC(c2nc(-c3ccc4c(c3)C(C)(C)CCC4(C)C)cs2)CC1 (stereo not shown) [Compound A40]
10 to 1000 nM	CC1(C)CCCc2ccc(-c3csc(C4CCNCC4)n3)cc21 [Compound C3]
10 to 1000 nM	CC1(C)CCC(C)(C)c2cc(-c3csc(C4CCN(Cc5ncc[nH]5)CC4)n3)ccc21 [Compound B13]
10 to 1000 nM	CC(C)NCC(O)CN1CCC(c2nc(-c3ccc4c(c3)C(C)(C)CCC4(C)C)cs2)CC1 (stereo not shown) [Compound A20]
10 to 1000 nM	CN1CCC(c2nc(-c3ccc4c(c3)C(C)(C)CCC4(C)C)cs2)CC1 [Compound A33]
10 to 1000 nM	COCCN1CCC(c2nc(-c3ccc4c(c3)C(C)(C)CCC4(C)C)cs2)CC1 [Compound A32]
10 to 1000 nM	CC1(C)CCC(C)(C)c2cc(-c3csc(C4CCN(C(=O)C5CNCCO5)CC4)n3)ccc21 (stereo not shown) [Compound A65]
10 to 1000 nM	Cn1ccnc1CN1CCC(c2nc(-c3ccc4c(c3)C(C)(C)CCC4(C)C)cs2)CC1 [Compound A73]
